In the supplement of paper PMC10307832:

How the values were obtained:
Experiment in all cases: relative viability (nuclei count vs DMSO), 5 days (fraction); higher = more cells survive
[1] = test system: HCC-15
Summary of the method: (§1)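 A single step with final 0.05% Triton X-100, 1% formaldehyde and 1 ug/ml Hoechst fixed the cells and stained nuclei 5 days after treatment. Lung cancer cell lines in 1536-well plates had been treated by pin tool the day after seeding with one drug alone or a fixed anchor-drug dose plus five library-drug doses (not always all listed) in √10 steps, and nuclei were counted on 4× images. Relative viability is the ratio of nuclei in treated wells to nuclei in vehicle wells, taken as the median of duplicate plates.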

[2] = test system: H3255
Summary of the method: as §1

[3] = test system: LK-2
Summary of the method: as §1

[4] = test system: NCI-H1755
Summary of the method: as §1

[5] = test system: NCI-H1563
Summary of the method: as §1

[6] = test system: PC-14
Summary of the method: as §1

[7] = test system: NCI-H2405
Summary of the method: as §1

[8] = test system: NCI-H1650
Summary of the method: as §1

[9] = test system: NCI-H322M
Summary of the method: as §1

[10] = test system: PC-3 [JPC-3]
Summary of the method: as §1

[11] = test system: NCI-H1355
Summary of the method: as §1

[12] = test system: NCI-H661
Summary of the method: as §1

[13] = test system: RERF-LC-KJ
Summary of the method: as §1

[14] = test system: NCI-H1975
Summary of the method: as §1

[15] = test system: HCC-827
Summary of the method: as §1

[16] = test system: NCI-H2228
Summary of the method: as §1

[17] = test system: LCLC-97TM1
Summary of the method: as §1

[18] = test system: NCI-H1734
Summary of the method: as §1

[19] = test system: CAL-12T
Summary of the method: as §1

[20] = test system: NCI-H520
Summary of the method: as §1

[21] = test system: EKVX
Summary of the method: as §1

## COc1nc(C)cnc1NS(=O)(=O)c1cccnc1-c1ccc(-c2nnco2)cc1 [Zibotentan] + CS(=O)(=O)N1CCN(Cc2cc3nc(-c4cccc5[nH]ncc45)nc(N4CCOCC4)c3s2)CC1 [Pictilisib] (partner 1 µM)
[1]; first compound 0.08 µM
  relative viability: 0.763
[1]; first compound 0.253 µM
  relative viability: 0.667
[1]; first compound 0.8 µM
  relative viability: 0.687
[1]; first compound 2.53 µM
  relative viability: 0.817
[2]; first compound 0.08 µM
  relative viability: 0.467
[2]; first compound 0.253 µM
  relative viability: 0.485
[2]; first compound 0.8 µM
  relative viability: 0.467
[2]; first compound 2.53 µM
  relative viability: 0.549
[3]; first compound 0.08 µM
  relative viability: 0.542
[3]; first compound 0.253 µM
  relative viability: 0.471
[3]; first compound 0.8 µM
  relative viability: 0.55
[3]; first compound 2.53 µM
  relative viability: 0.603
[4]; first compound 0.08 µM
  relative viability: 0.444
[4]; first compound 0.253 µM
  relative viability: 0.461
[4]; first compound 0.8 µM
  relative viability: 0.382
[4]; first compound 2.53 µM
  relative viability: 0.47
[5]; first compound 0.08 µM
  relative viability: 0.635
[5]; first compound 0.253 µM
  relative viability: 0.594
[5]; first compound 0.8 µM
  relative viability: 0.652
[5]; first compound 2.53 µM
  relative viability: 0.639
[6]; first compound 0.08 µM
  relative viability: 0.91
[6]; first compound 0.253 µM
  relative viability: 0.8
[6]; first compound 0.8 µM
  relative viability: 0.793
[6]; first compound 2.53 µM
  relative viability: 0.628
[7]; first compound 0.08 µM
  relative viability: 0.441
[7]; first compound 0.253 µM
  relative viability: 0.339
[7]; first compound 0.8 µM
  relative viability: 0.473
[7]; first compound 2.53 µM
  relative viability: 0.481
[8]; first compound 0.08 µM
  relative viability: 0.675
[8]; first compound 0.8 µM
  relative viability: 0.638
[8]; first compound 2.53 µM
  relative viability: 0.658
[9]; first compound 0.08 µM
  relative viability: 0.521
[9]; first compound 0.253 µM
  relative viability: 0.559
[9]; first compound 0.8 µM
  relative viability: 0.533
[9]; first compound 2.53 µM
  relative viability: 0.506
[10]; first compound 0.08 µM
  relative viability: 0.756
[10]; first compound 0.253 µM
  relative viability: 0.717
[10]; first compound 0.8 µM
  relative viability: 0.647
[10]; first compound 2.53 µM
  relative viability: 0.781
[11]; first compound 0.08 µM
  relative viability: 0.403
[11]; first compound 0.253 µM
  relative viability: 0.424
[11]; first compound 0.8 µM
  relative viability: 0.431
[11]; first compound 2.53 µM
  relative viability: 0.436
[12]; first compound 0.08 µM
  relative viability: 0.43
[12]; first compound 0.253 µM
  relative viability: 0.302
[12]; first compound 0.8 µM
  relative viability: 0.391
[12]; first compound 2.53 µM
  relative viability: 0.314
[13]; first compound 0.08 µM
  relative viability: 0.484
[13]; first compound 0.253 µM
  relative viability: 0.704
[13]; first compound 0.8 µM
  relative viability: 0.593
[13]; first compound 2.53 µM
  relative viability: 0.514
[14]; first compound 0.08 µM
  relative viability: 0.311
[14]; first compound 0.253 µM
  relative viability: 0.262
[14]; first compound 0.8 µM
  relative viability: 0.293
[14]; first compound 2.53 µM
  relative viability: 0.299
[15]; first compound 0.08 µM
  relative viability: 0.95
[15]; first compound 0.253 µM
  relative viability: 0.846
[15]; first compound 0.8 µM
  relative viability: 0.964
[15]; first compound 2.53 µM
  relative viability: 0.956
[16]; first compound 0.08 µM
  relative viability: 0.45
[16]; first compound 0.253 µM
  relative viability: 0.438
[16]; first compound 0.8 µM
  relative viability: 0.355
[16]; first compound 2.53 µM
  relative viability: 0.317
[17]; first compound 0.08 µM
  relative viability: 0.214
[17]; first compound 0.253 µM
  relative viability: 0.167
[17]; first compound 0.8 µM
  relative viability: 0.176
[17]; first compound 2.53 µM
  relative viability: 0.176
[18]; first compound 0.08 µM
  relative viability: 0.516
[18]; first compound 0.253 µM
  relative viability: 0.442
[18]; first compound 0.8 µM
  relative viability: 0.461
[18]; first compound 2.53 µM
  relative viability: 0.43
[19]; first compound 0.08 µM
  relative viability: 0.395
[19]; first compound 0.8 µM
  relative viability: 0.453
[19]; first compound 2.53 µM
  relative viability: 0.513
[20]; first compound 0.08 µM
  relative viability: 0.336
[20]; first compound 0.253 µM
  relative viability: 0.233
[20]; first compound 0.8 µM
  relative viability: 0.311
[20]; first compound 2.53 µM
  relative viability: 0.316
[21]; first compound 0.08 µM
  relative viability: 0.465
[21]; first compound 0.253 µM
  relative viability: 0.451
[21]; first compound 0.8 µM
  relative viability: 0.439
[21]; first compound 2.53 µM
  relative viability: 0.453
